Assay results as given in patent publication US8192962B2, “Processes for detecting toxic substances” (Daikin Industries, Ltd., priority 2001, dated 2012).

Test system: Detoxification protein genes
Assay: DNA chip mRNA expression in yeast, detoxification protein genes (Table 8)
Type: cell-based, Saccharomyces cerevisiae S288C
In short: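 Values are treated/untreated fluorescence ratios from a whole-genome yeast DNA chip hybridized over 12 hours at 65° C with Cy3- or Cy5-labelled cDNA from poly(A) mRNA. Log-phase S288C yeast in YPD at 25° C had received a single toxic chemical for two hours, dosed to slow growth without killing.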

Cl[C@H]1[C@H](Cl)[C@@H](Cl)[C@@H](Cl)[C@H](Cl)[C@H]1Cl [(7), γ-hexachlorocyclohexane]
The level of expressed mRNA in the presence of chemical substance/The level of expressed mRNA in the absence of chemical substance (yeast gene YBR244W): 0.6
The level of expressed mRNA in the presence of chemical substance/The level of expressed mRNA in the absence of chemical substance (yeast gene YBR293W): 0.9
The level of expressed mRNA in the presence of chemical substance/The level of expressed mRNA in the absence of chemical substance (yeast gene YCL035C): 2.7
The level of expressed mRNA in the presence of chemical substance/The level of expressed mRNA in the absence of chemical substance (yeast gene YCL069W): 1.4
The level of expressed mRNA in the presence of chemical substance/The level of expressed mRNA in the absence of chemical substance (yeast gene YCR083W): 1.8
The level of expressed mRNA in the presence of chemical substance/The level of expressed mRNA in the absence of chemical substance (yeast gene YDL100C): 1.6
The level of expressed mRNA in the presence of chemical substance/The level of expressed mRNA in the absence of chemical substance (yeast gene YDL168W): 1.1
The level of expressed mRNA in the presence of chemical substance/The level of expressed mRNA in the absence of chemical substance (yeast gene YDR256C): 0.6
The level of expressed mRNA in the presence of chemical substance/The level of expressed mRNA in the absence of chemical substance (yeast gene YDR453C): 1.0
The level of expressed mRNA in the presence of chemical substance/The level of expressed mRNA in the absence of chemical substance (yeast gene YDR513W): 1.6
The level of expressed mRNA in the presence of chemical substance/The level of expressed mRNA in the absence of chemical substance (yeast gene YDR538W): 1.2
The level of expressed mRNA in the presence of chemical substance/The level of expressed mRNA in the absence of chemical substance (yeast gene YEL027W): 0.8
The level of expressed mRNA in the presence of chemical substance/The level of expressed mRNA in the absence of chemical substance (yeast gene YEL065W): 4.3
The level of expressed mRNA in the presence of chemical substance/The level of expressed mRNA in the absence of chemical substance (yeast gene YER185W): 1.1
The level of expressed mRNA in the presence of chemical substance/The level of expressed mRNA in the absence of chemical substance (yeast gene YFL050C): 0.8
The level of expressed mRNA in the presence of chemical substance/The level of expressed mRNA in the absence of chemical substance (yeast gene YGL013C): 0.9
The level of expressed mRNA in the presence of chemical substance/The level of expressed mRNA in the absence of chemical substance (yeast gene YGL254W): 1.3
The level of expressed mRNA in the presence of chemical substance/The level of expressed mRNA in the absence of chemical substance (yeast gene YGR088W): 0.8
The level of expressed mRNA in the presence of chemical substance/The level of expressed mRNA in the absence of chemical substance (yeast gene YGR138C): 0.7
The level of expressed mRNA in the presence of chemical substance/The level of expressed mRNA in the absence of chemical substance (yeast gene YGR197C): 1.3
The level of expressed mRNA in the presence of chemical substance/The level of expressed mRNA in the absence of chemical substance (yeast gene YGR209C): 1.7
The level of expressed mRNA in the presence of chemical substance/The level of expressed mRNA in the absence of chemical substance (yeast gene YGR224W): 0.4
The level of expressed mRNA in the presence of chemical substance/The level of expressed mRNA in the absence of chemical substance (yeast gene YHL040C): 4.0
The level of expressed mRNA in the presence of chemical substance/The level of expressed mRNA in the absence of chemical substance (yeast gene YHL047C): 16.8
The level of expressed mRNA in the presence of chemical substance/The level of expressed mRNA in the absence of chemical substance (yeast gene YHR008C): 0.7
The level of expressed mRNA in the presence of chemical substance/The level of expressed mRNA in the absence of chemical substance (yeast gene YHR048W): 0.8
The level of expressed mRNA in the presence of chemical substance/The level of expressed mRNA in the absence of chemical substance (yeast gene YHR053C): 1.2
The level of expressed mRNA in the presence of chemical substance/The level of expressed mRNA in the absence of chemical substance (yeast gene YHR055C): 1.1
The level of expressed mRNA in the presence of chemical substance/The level of expressed mRNA in the absence of chemical substance (yeast gene YIR002C): 1.3
The level of expressed mRNA in the presence of chemical substance/The level of expressed mRNA in the absence of chemical substance (yeast gene YIR038C): 2.0
The level of expressed mRNA in the presence of chemical substance/The level of expressed mRNA in the absence of chemical substance (yeast gene YJL101C): 1.0
The level of expressed mRNA in the presence of chemical substance/The level of expressed mRNA in the absence of chemical substance (yeast gene YJR104C): 1.1
The level of expressed mRNA in the presence of chemical substance/The level of expressed mRNA in the absence of chemical substance (yeast gene YKL026C): 2.5
The level of expressed mRNA in the presence of chemical substance/The level of expressed mRNA in the absence of chemical substance (yeast gene YKL064W): 1.1
The level of expressed mRNA in the presence of chemical substance/The level of expressed mRNA in the absence of chemical substance (yeast gene YKR066C): 0.5
The level of expressed mRNA in the presence of chemical substance/The level of expressed mRNA in the absence of chemical substance (yeast gene YKR105C): 1.0
The level of expressed mRNA in the presence of chemical substance/The level of expressed mRNA in the absence of chemical substance (yeast gene YKR106W): 0.9
The level of expressed mRNA in the presence of chemical substance/The level of expressed mRNA in the absence of chemical substance (yeast gene YLL028W): 1.0
The level of expressed mRNA in the presence of chemical substance/The level of expressed mRNA in the absence of chemical substance (yeast gene YLL057C): 1.6
The level of expressed mRNA in the presence of chemical substance/The level of expressed mRNA in the absence of chemical substance (yeast gene YLL060C): 2.0
The level of expressed mRNA in the presence of chemical substance/The level of expressed mRNA in the absence of chemical substance (yeast gene YLR043C): 2.6
The level of expressed mRNA in the presence of chemical substance/The level of expressed mRNA in the absence of chemical substance (yeast gene YLR046C): 1.5
The level of expressed mRNA in the presence of chemical substance/The level of expressed mRNA in the absence of chemical substance (yeast gene YML028W): 0.8
The level of expressed mRNA in the presence of chemical substance/The level of expressed mRNA in the absence of chemical substance (yeast gene YML116W): 1.4
The level of expressed mRNA in the presence of chemical substance/The level of expressed mRNA in the absence of chemical substance (yeast gene YMR015C): 0.4
The level of expressed mRNA in the presence of chemical substance/The level of expressed mRNA in the absence of chemical substance (yeast gene YMR038C): 1.1
The level of expressed mRNA in the presence of chemical substance/The level of expressed mRNA in the absence of chemical substance (yeast gene YNL239W): 2.1
The level of expressed mRNA in the presence of chemical substance/The level of expressed mRNA in the absence of chemical substance (yeast gene YNL241C): 3.2
The level of expressed mRNA in the presence of chemical substance/The level of expressed mRNA in the absence of chemical substance (yeast gene YNL259C): 3.8
The level of expressed mRNA in the presence of chemical substance/The level of expressed mRNA in the absence of chemical substance (yeast gene YOL158C): 1.6
The level of expressed mRNA in the presence of chemical substance/The level of expressed mRNA in the absence of chemical substance (yeast gene YOR031W): 1.3
The level of expressed mRNA in the presence of chemical substance/The level of expressed mRNA in the absence of chemical substance (yeast gene YOR153W): 2.6
The level of expressed mRNA in the presence of chemical substance/The level of expressed mRNA in the absence of chemical substance (yeast gene YOR247W): 0.5
The level of expressed mRNA in the presence of chemical substance/The level of expressed mRNA in the absence of chemical substance (yeast gene YOR251C): 1.0
The level of expressed mRNA in the presence of chemical substance/The level of expressed mRNA in the absence of chemical substance (yeast gene YOR273C): 0.4
The level of expressed mRNA in the presence of chemical substance/The level of expressed mRNA in the absence of chemical substance (yeast gene YPL163C): 0.4
The level of expressed mRNA in the presence of chemical substance/The level of expressed mRNA in the absence of chemical substance (yeast gene YPR200C): 1.3
